# Patent US20090036422A1 (priority 2007, published 2009)
# Where a name gives a salt, the structure may show the parent alone.
# Target: T1, human orexin-2 (hOX2) receptor (Homo sapiens, UniProt O43614)
# T1 construct: expressed in transfected cells
# T1 sequence (O43614 1-444): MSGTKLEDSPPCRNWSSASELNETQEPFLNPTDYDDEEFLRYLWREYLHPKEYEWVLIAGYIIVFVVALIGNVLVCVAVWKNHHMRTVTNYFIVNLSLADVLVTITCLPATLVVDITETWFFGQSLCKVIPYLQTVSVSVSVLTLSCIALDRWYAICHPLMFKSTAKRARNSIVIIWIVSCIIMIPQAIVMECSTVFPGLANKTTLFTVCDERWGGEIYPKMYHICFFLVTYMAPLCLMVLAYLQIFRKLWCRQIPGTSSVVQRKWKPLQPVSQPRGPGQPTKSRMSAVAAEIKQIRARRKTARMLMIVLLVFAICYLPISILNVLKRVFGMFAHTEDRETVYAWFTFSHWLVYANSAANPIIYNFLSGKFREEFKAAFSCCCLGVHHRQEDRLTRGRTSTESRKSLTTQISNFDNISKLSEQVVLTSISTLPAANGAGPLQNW
# Experiment: Intracellular Ca2+ mobilization assay (FLIPR), CHO(dHFr-) cells expressing hOX2, orexin-A at EC80 as agonist
# Type: cell-based
# Details: Kb=IC50/(1+[A]/EC50); CHO(dHFr-)-OX2R cells, antagonist applied 25 min before orexin-A EC80
# Experimental: Intracellular Ca^2+ Mobilization Assay
# The Chinese Hamster Ovary (dHFr−) mutant cell line stably expressing human orexin-1 (hOX1) or human orexin-2 (hOX2) receptors were maintained in Dulbecco's Modified Eagle Medium (1×) with GlutaMax™ 1, 4500 mg/L D-Glucose and Sodium Pyruvate (Catalog No. 31966-021, Invitrogen, Carlsbad, Calif.), 5% dialyzed fetal calf serum (Catalog No. 26400-044), 100 μg/ml penicillin and 100 μg/ml streptomycin. The cells were seeded at 5×10^4 cells/well in the poly-D-lysine treated, 96-well, black/clear-bottomed plates (Catalog No. BD356640, BD Biosciences, Palo Alto, Calif.). 24 h later, the cells were loaded for 1 h at 37° C. with 4 μM Flou-4 acetoxymethyl ester (Catalog No. F-14202, Molecular Probes, Eugene, Oreg.) in FLIPR buffer (1×HBSS, 20 mM HEPES, 2.5 mM Probenecid). Hanks' Balanced Salt Solution (HBSS) (10×) (catalog No. 14065-049) and HEPES (1M) (catalog No. 15630-056) were purchased from Invitrogen, Carlsbad, Calif. Probenecid (250 mM) (catalog No. P8761) was from Sigma, Buchs, Switzerland. The cells were washed five times with FLIPR buffer to remove excess dye and intracellular calcium mobilization, [Ca^2+]i were measured using a Fluorometric Imaging Plate Reader (FLIPR-96, Molecular Devices, Menlo Park, Calif.) as described previously (Malherbe et al., Mol. Pharmacol., 64, 823-832, 2003). Orexin A (catalog No. 1455, Toris Cookson Ltd, Bristol, UK) was used as agonist. Orexin A (50 mM stock solution in DMSO) was diluted in FLIPR buffer +0.1% BSA. The EC50 and EC80 values of orexin-A were measured daily from standard agonist concentration-response curves in CHO(dHFr−) —OX1R and —OX2R cell lines. All compounds were dissolved in 100% DMSO. Inhibition curves were determined by addition of 11 concentrations (0.0001-10 μM) of inhibitory compounds and using EC80 value of orexin-A as agonist (a concentration which gave 80% of max agonist response, determined daily). The antagonists were applied 25 min (incubation at 37° C.) before the application of the agonist. Responses were measured as peak increase in fluorescence minus basal, normalized to the maximal stimulatory effect induced by EC80 value of orexin-A or orexin-B. Inhibition curves were fitted according to the Hill equation: y=100/(1+(x/IC50)^nH), where nH=slope factor using Excel-fit 4 software (Microsoft).
# Kb values were calculated according to the following equation Kb=IC50/(1+[A]/EC50) where A is the concentration of agonist added which is very close to agonist EC80 value, and IC50 and EC50 values were derived from the antagonist inhibition and orexin-A or B agonist curves, respectively.
row,SMILES,Kb [µM]
1,"Cc1cccc(N(CCc2ccc(C(F)(F)F)cc2)C(=O)C(N)c2ccccc2)c1 (stereo not shown) [Example 70, 2-Amino-2-phenyl-N-m-tolyl-N-[2-(4-trifluoromethyl-phenyl)-ethyl]-acetamide]",0.0579
2,"COc1ccc(N(CCc2ccc(C(F)(F)F)cc2)C(=O)[C@@H](NC2COC2)c2ccccc2)cc1OC [Example 72, (S)—N-(3,4-Dimethoxy-phenyl)-2-(oxetan-3-ylamino)-2-phenyl-N-[2-(4-trifluoromethyl-phenyl)-ethyl]-acetamide]",0.0023
3,"COc1ccc(N(CCc2ccc(C(F)(F)F)cc2)C(=O)C(N)c2ccccc2)cc1 (stereo not shown) [Example 75, 2-Amino-N-(4-methoxy-phenyl)-2-phenyl-N-[2-(4-trifluoromethyl-phenyl)-ethyl]-acetamide]",0.0523
4,"COc1ccc(CCN(C(=O)C(N)c2ccccc2)c2ccc(OC(F)(F)F)cc2)cc1OC (stereo not shown) [Example 78, 2-Amino-N-[2-(3,4-dimethoxy-phenyl)-ethyl]-2-phenyl-N-(4-trifluoromethoxy-phenyl)-acetamide]",0.0444
5,"Cc1cc(N(CCc2ccc(C(F)(F)F)cc2)C(=O)C(N)c2ccccc2)ccc1F (stereo not shown) [Example 83, 2-Amino-N-(4-fluoro-3-methyl-phenyl)-2-phenyl-N-[2-(4-trifluoromethyl-phenyl)-ethyl]-acetamide]",0.0698
6,"Cc1ccc(N(CCc2ccc(C(F)(F)F)cc2)C(=O)C(N)c2ccccc2)cc1C (stereo not shown) [Example 84, 2-Amino-N-(3,4-dimethyl-phenyl)-2-phenyl-N-[2-(4-trifluoromethyl-phenyl)-ethyl]-acetamide]",0.0666
7,"COc1ccc(N(CCc2ccc(C(F)(F)F)cc2)C(=O)C(N)c2cccc(F)c2)cc1OC (stereo not shown) [Example 85, 2-Amino-N-(3,4-dimethoxy-phenyl)-2-(3-fluoro-phenyl)-N-[2-(4-trifluoromethyl-phenyl)-ethyl]-acetamide]",0.0074
8,"Cc1ccc(CCN(C(=O)C(N)c2ccccc2)c2ccc(F)c(C)c2)cc1 (stereo not shown) [Example 88, 2-Amino-N-(4-fluoro-3-methyl-phenyl)-2-phenyl-N-(2-p-tolyl-ethyl)-acetamide]",0.0819
9,"Cc1ccc(CCN(C(=O)C(N)c2ccccc2)c2ccc(C)c(C)c2)cc1 (stereo not shown) [Example 89, 2-Amino-N-(3,4-dimethyl-phenyl)-2-phenyl-N-(2-p-tolyl-ethyl)-acetamide]",0.0241
10,"Cc1ccc(N(CCc2ccc(Cl)cc2)C(=O)C(N)c2ccccc2)cc1C (stereo not shown) [Example 93, 2-Amino-N-[2-(4-chloro-phenyl)-ethyl]-N-(3,4-dimethyl-phenyl)-2-phenyl-acetamide]",0.0888
11,"NC(C(=O)N(CCc1ccc(C(F)(F)F)cc1)c1cccc(C2(O)COC2)c1)c1ccccc1 (stereo not shown) [Example 95, 2-Amino-N-[3-(3-hydroxy-oxetan-3-yl)-phenyl]-2-phenyl-N-[2-(4-trifluoromethyl-phenyl)-ethyl]-acetamide]",0.0834
12,"CN[C@H](C(=O)N(CCc1ccc(C(F)(F)F)cc1)c1ccc(OC)c(OC)c1)c1ccccc1OC [Example 101, (S)—N-(3,4-Dimethoxy-phenyl)-2-(2-methoxy-phenyl)-2-methylamino-N-[2-(4-trifluoromethyl-phenyl)-ethyl]-acetamide hydrochloride]",0.0133
13,"COc1ccc(N(CCc2ccc(C(F)(F)F)cc2)C(=O)[C@@H](N)c2ccccc2OC)cc1OC [Example 103, (S)-2-Amino-N-(3,4-dimethoxy-phenyl)-2-(2-methoxy-phenyl)-N-[2-(4-trifluoromethyl-phenyl)-ethyl]-acetamide hydrochloride]",0.0053
14,"COc1cc(N(CCc2ccc(C(F)(F)F)cc2)C(=O)C(N)c2ccccc2)ccc1F (stereo not shown) [Example 104, 2-Amino-N-(4-fluoro-3-methoxy-phenyl)-2-phenyl-N-[2-(4-trifluoromethyl-phenyl)-ethyl]-acetamide]",0.022
15,"NC(C(=O)N(CCc1ccc(C(F)(F)F)cc1)c1ccc(OC(F)F)cc1)c1ccccc1 (stereo not shown) [Example 105, 2-Amino-N-(4-difluoromethoxy-phenyl)-2-phenyl-N-[2-(4-trifluoromethyl-phenyl)-ethyl]-acetamide]",0.0414
16,"Cc1ccc(CCN(C(=O)C(NCCO)c2ccccc2)c2ccc(C)c(C)c2)cc1 (stereo not shown) [Example 106, N-(3,4-Dimethyl-phenyl)-2-(2-hydroxy-ethylamino)-2-phenyl-N-(2-p-tolyl-ethyl)-acetamide]",0.0071
17,"NC(C(=O)N(CCc1ccc(C(F)(F)F)cc1)c1cccc(OC(F)F)c1)c1ccccc1 (stereo not shown) [Example 107, 2-Amino-N-(3-difluoromethoxy-phenyl)-2-phenyl-N-[2-(4-trifluoromethyl-phenyl)-ethyl]-acetamide]",0.0509
18,"COc1ccc(Cl)c(N(CCc2ccc(C(F)(F)F)cc2)C(=O)C(N)c2ccccc2)c1 (stereo not shown) [Example 110, 2-Amino-N-(2-chloro-5-methoxy-phenyl)-2-phenyl-N-[2-(4-trifluoromethyl-phenyl)-ethyl]-acetamide]",0.0335
19,"COCC(C)NC(C(=O)N(CCc1ccc(C)cc1)c1ccc(C)c(C)c1)c1ccccc1 (stereo not shown) [Example 120, N-(3,4-Dimethyl-phenyl)-2-(2-methoxy-1-methyl-ethylamino)-2-phenyl-N-(2-p-tolyl-ethyl)-acetamide]",0.0446
20,"Cc1ccc(CCN(C(=O)C(NCC(C)O)c2ccccc2)c2ccc(C)c(C)c2)cc1 (stereo not shown) [Example 121, N-(3,4-Dimethyl-phenyl)-2-(2-hydroxy-propylamino)-2-phenyl-N-(2-p-tolyl-ethyl)-acetamide]",0.0109
21,"Cc1ccc(CCN(C(=O)C(NC(C)CO)c2ccccc2)c2ccc(C)c(C)c2)cc1 (stereo not shown) [Example 122, N-(3,4-Dimethyl-phenyl)-2-(2-hydroxy-1-methyl-ethylamino)-2-phenyl-N-(2-p-tolyl-ethyl)-acetamide]",0.0225
22,"Cc1ccc(CCN(C(=O)C(NC(CO)C(C)C)c2ccccc2)c2ccc(C)c(C)c2)cc1 (stereo not shown) [Example 123, N-(3,4-Dimethyl-phenyl)-2-(1-hydroxymethyl-2-methyl-propylamino)-2-phenyl-N-(2-p-tolyl-ethyl)-acetamide]",0.0727
23,"CCC(COC)NC(C(=O)N(CCc1ccc(C)cc1)c1ccc(C)c(C)c1)c1ccccc1 (stereo not shown) [Example 125, N-(3,4-Dimethyl-phenyl)-2-(1-methoxymethyl-propylamino)-2-phenyl-N-(2-p-tolyl-ethyl)-acetamide]",0.0267
24,"CC(=O)NCCNC(C(=O)N(CCc1ccc(C)cc1)c1ccc(C)c(C)c1)c1ccccc1 (stereo not shown) [Example 126, 2-(2-Acetylamino-ethylamino)-N-(3,4-dimethyl-phenyl)-2-phenyl-N-(2-p-tolyl-ethyl)-acetamide]",0.0086
25,"Cc1ccc(CCN(C(=O)C(NCC2CCCO2)c2ccccc2)c2ccc(C)c(C)c2)cc1 (stereo not shown) [Example 127, N-(3,4-Dimethyl-phenyl)-2-phenyl-2-[(tetrahydro-furan-2-ylmethyl)-amino]-N-(2-p-tolyl-ethyl)-acetamide]",0.0222
26,"COC(CNC(C(=O)N(CCc1ccc(C)cc1)c1ccc(C)c(C)c1)c1ccccc1)OC (stereo not shown) [Example 129, 2-(2,2-Dimethoxy-ethylamino)-N-(3,4-dimethyl-phenyl)-2-phenyl-N-(2-p-tolyl-ethyl)-acetamide]",0.0173
27,"Cc1ccc(CCN(C(=O)C(NCc2ccco2)c2ccccc2)c2ccc(C)c(C)c2)cc1 (stereo not shown) [Example 130, N-(3,4-Dimethyl-phenyl)-2-[(furan-2-ylmethyl)-amino]-2-phenyl-N-(2-p-tolyl-ethyl)-acetamide]",0.0416
28,"CCC(O)CNC(C(=O)N(CCc1ccc(C)cc1)c1ccc(C)c(C)c1)c1ccccc1 (stereo not shown) [Example 131, N-(3,4-Dimethyl-phenyl)-2-(2-hydroxy-butylamino)-2-phenyl-N-(2-p-tolyl-ethyl)-acetamide]",0.022
